{
  "source": "patent US20100261711A1",
  "about": "“SELECTIVE ANTICONVULSANT AGENTS AND THEIR USES” (WiSys Technology Foundation, priority 2009, published 2010)",
  "key": {"MES-induced seizures [1]": {"system": "MES-induced seizures", "assay": "Maximal electroshock test (MES), rats", "assay_type": "in vivo", "conditions": "for MES, animals protected/tested: 30 mg/kg"}, "[2]": {"system": "Metrazol-induced clonic seizures", "assay": "Subcutaneous Metrazol test (scMet), mice", "assay_type": "in vivo"}, "6 Hz psychomotor seizure": {"system": "6 Hz psychomotor seizure", "assay": "Minimal clonic seizure (6 Hz) test", "assay_type": "in vivo", "conditions": "Mice IP; for 6 Hz, animals protected/tested: 100 m/k, 44 mA", "how_it_was_run": "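Mice dosed ip with test compound before 6 Hz corneal-type electrical stimulation lasting 3 s. Protection scored as absence of minimal clonic phase and stereotyped automatistic behaviour seen in untreated animals.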"}, "MES-induced seizures [3]": {"system": "MES-induced seizures", "assay": "Maximal electroshock test (MES), mice", "assay_type": "in vivo"}, "[4]": {"biological_target": "T1, GABAA/α5 (α5β3γ2 GABAA receptors) (Homo sapiens, UniProt P18507+P31644)", "T1 construct": "expressed in transfected cells", "assay": "Competitive binding assay, [3H]flunitrazepam", "conditions": "Binding Affinity at GABAA/α5, αxβ3γ2, [3H]flunitrazepam competition", "how_it_was_run": "(§1)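 Bound ligand was collected on 0.3% polyethyleneimine-pretreated GF/C filters with three ice-cold washes and quantified by liquid scintillation counting; membrane protein was determined against a BSA standard.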"}, "[5]": {"biological_target": "T2, GABAA/α1 (α1β3γ2 GABAA receptors) (Homo sapiens, UniProt P14867+P18507)", "T2 construct": "expressed in transfected cells", "assay": "Competitive binding assay, [3H]flunitrazepam", "conditions": "Binding Affinity at GABAA/α1, αxβ3γ2, [3H]flunitrazepam competition", "how_it_was_run": "as §1"}, "[6]": {"biological_target": "T3, GABAA/α2 (α2β3γ2 GABAA receptors) (Homo sapiens, UniProt P18507+P47869)", "T3 construct": "expressed in transfected cells", "assay": "Competitive binding assay, [3H]flunitrazepam", "conditions": "Binding Affinity at GABAA/α2, αxβ3γ2, [3H]flunitrazepam competition", "how_it_was_run": "as §1"}, "[7]": {"system": "minimal motor deficit (ataxia, abnormal gait)", "assay": "Toxicity (TOX), minimal motor deficit, rats", "assay_type": "in vivo", "conditions": "for TOX (Rotorod Test), animals toxic/tested: Rat IP, 100 mg/kg"}, "[8]": {"assay": "Toxicity (TOX), rotorod procedure, mice", "assay_type": "in vivo", "conditions": "mouse, in vivo; Mice IP, rotorod; read-out: TD50 TOX"}, "[9]": {"system": "minimal muscular or neurological impairment", "assay": "Toxicity (TOX), rotorod procedure, mice", "assay_type": "in vivo"}, "[10]": {"conditions": "Mice, 50 mg/kg PO (Mice IP), 0.5 hr"}, "[11]": {"conditions": "Mice, 50 mg/kg PO (Mice IP), 4.0 hr"}},
  "note": "Marks after values point to notes of the source that are not given here.",
  "data": [
    {"smiles": "C#Cc1ccc2c(c1)C(c1ccccc1F)=NCc1c(C(=O)OCC)ncn1-2", "note": "[JY-XHe-053 (15), Ethyl-8-acetyleno-6-(2′-fluorophenyl)-4H-benzo[f]imidazo[1,5-a][1,4]diazepine-3-carboxylate]", "values": [
      {"measurement": "ED50", "setting": "MES-induced seizures [1]; Rat IP", "value": "> 30", "unit": "mg/kg"},
      {"measurement": "ED50", "setting": "MES-induced seizures [1]; Rat PO", "value": "> 250", "unit": "mg/kg"},
      {"measurement": "MES, animals protected/tested", "setting": "MES-induced seizures [1]; Rat PO, 0.5 h", "value": "0/4"},
      {"measurement": "MES, animals protected/tested", "setting": "MES-induced seizures [1]; Rat PO, 1.0 h", "value": "0/4"},
      {"measurement": "MES, animals protected/tested", "setting": "MES-induced seizures [1]; Rat PO, 2.0 h", "value": "0/4"},
      {"measurement": "MES, animals protected/tested", "setting": "MES-induced seizures [1]; Rat PO, 4.0 h", "value": "1/4"},
      {"measurement": "MES, animals protected/tested", "setting": "MES-induced seizures [1]; Rat PO, 6.0 h", "value": "0/4"},
      {"measurement": "scMet, animals protected/tested", "setting": "[2]; Mice IP, 100 mg/kg, 0.5 hr", "value": "5/5"},
      {"measurement": "scMet, animals protected/tested", "setting": "[2]; Mice IP, 100 mg/kg, 4.0 hr", "value": "0/1"},
      {"measurement": "scMet, animals protected/tested", "setting": "[2]; [10]", "value": "3/4"},
      {"measurement": "scMet, animals protected/tested", "setting": "[2]; [11]", "value": "4/4"},
      {"measurement": "ED50", "setting": "[2]; Mus musculus, Mice IP", "value": 8.87, "unit": "mg/kg"},
      {"measurement": "6 Hz, animals protected/tested", "setting": "6 Hz psychomotor seizure; 0.5 hr", "value": "4/4"},
      {"measurement": "6 Hz, animals protected/tested", "setting": "6 Hz psychomotor seizure; 1.0 hr", "value": "2/4"},
      {"measurement": "6 Hz, animals protected/tested", "setting": "6 Hz psychomotor seizure; 2.0 hr", "value": "2/4"},
      {"measurement": "6 Hz, animals protected/tested", "setting": "6 Hz psychomotor seizure; 4 hr", "value": "0/4"},
      {"measurement": "6 Hz, animals protected/tested", "setting": "6 Hz psychomotor seizure; […]", "value": "2/4"},
      {"measurement": "ED50", "setting": "6 Hz psychomotor seizure; Mus musculus, ip, 32 mA, read-out: ED50 32 mA (6 Hz test)", "value": 39.2, "unit": "mg/kg"},
      {"measurement": "MES, animals protected/tested", "setting": "MES-induced seizures [3]; Mice IP, 100 mg/kg, 0.5 hr", "value": "0/3"},
      {"measurement": "MES, animals protected/tested", "setting": "MES-induced seizures [3]; Mice IP, 100 mg/kg, 4.0 hr", "value": "0/3"},
      {"measurement": "MES, animals protected/tested", "setting": "MES-induced seizures [3]; [10]", "value": "1/4"},
      {"measurement": "MES, animals protected/tested", "setting": "MES-induced seizures [3]; [11]", "value": "0/4"},
      {"measurement": "ED50", "setting": "MES-induced seizures [3]; Mus musculus, Mice IP", "value": "> 200", "unit": "mg/kg"},
      {"measurement": "Ki", "setting": "[4]", "value": 0.671, "unit": "nM"},
      {"measurement": "Ki", "setting": "[5]", "value": 22, "unit": "nM"},
      {"measurement": "Ki", "setting": "[6]", "value": 12.3, "unit": "nM"},
      {"measurement": "TOX (Rotorod Test), animals toxic/tested", "setting": "[7]; 0.5 hr", "value": "0/4"},
      {"measurement": "TOX (Rotorod Test), animals toxic/tested", "setting": "[7]; 4.0 hr", "value": "0/4"},
      {"measurement": "Tox, animals toxic/tested", "setting": "[7]; Rat PO, 40 mg/kg, 4.0 h", "value": "0/4^e"},
      {"measurement": "Tox, animals toxic/tested", "setting": "[7]; Rat PO, 40 mg/kg, 6.0 h", "value": "0/4^e"},
      {"measurement": "Tox, animals toxic/tested", "setting": "[7]; Rat PO, 50 mg/kg, 0.5 h", "value": "0/4"},
      {"measurement": "Tox, animals toxic/tested", "setting": "[7]; Rat PO, 50 mg/kg, 1.0 h", "value": "0/4"},
      {"measurement": "Tox, animals toxic/tested", "setting": "[7]; Rat PO, 50 mg/kg, 2.0 h", "value": "0/4"},
      {"measurement": "Tox, animals toxic/tested", "setting": "[7]; Rat PO, 50 mg/kg, 4.0 h", "value": "0/4"},
      {"measurement": "Tox, animals toxic/tested", "setting": "[7]; Rat PO, 50 mg/kg, […]", "value": "0/4"},
      {"measurement": "TD50 TOX", "setting": "[7]; Rat PO, abnormal gait", "value": ">500", "unit": "mg/kg"},
      {"measurement": "motor impairment / sedative or locomotor effects", "setting": "[7]; rats, oral administration, up to 500 mg/kg", "value": "No motor impairment"},
      {"measurement": "TD50", "setting": "[8]", "value": "> 400", "unit": "mg/kg"},
      {"measurement": "TOX (Rotorod Test), animals toxic/tested", "setting": "[9]; Mice IP, 100 mg/kg, 0.5 hr", "value": "6/8"},
      {"measurement": "TOX (Rotorod Test), animals toxic/tested", "setting": "[9]; Mice IP, 100 mg/kg, 4.0 hr", "value": "0/4"},
      {"measurement": "TD50 TOX", "setting": "[9]; Mice IP, rotorod", "value": "> 400", "unit": "mg/kg"},
      {"measurement": "TOX (Rotorod Test), animals toxic/tested", "setting": "[9]; [10]", "value": "0/4"},
      {"measurement": "TOX (Rotorod Test), animals toxic/tested", "setting": "[9]; [11]", "value": "0/4"}
    ]}
  ]
}
